Experimental data taken from US6486206B1, “Mechanical and pharmacologic therapies to treat cardiac arrest” (CPRx Inc., priority 1997, dated 2002).

Test system: porcine model of ventricular fibrillation
Conditions: pigs, standard CPR, 2 minutes after drug administration
Procedure: Vital organ blood flow was also assessed after four minutes of ventricular fibrulation, four minutes of standard CPR, and two minutes after drug administration.

CNC[C@H](O)c1ccc(O)c(O)c1 [epinephrine]
endocardial:epicardial ratio (mean±SEM): 0.81±0.21
